Results on 23 compounds are retold here after patent publication US11033516B1, “Combination therapies with disulfiram” (Spring Discovery, Inc., priority 2020, dated 2021).

Broadly, the IC50 is the concentration that gives 50% inhibition. Usually Ki stands for the dissociation constant of the complex between target and ligand, obtained from inhibition or displacement. A word on the Kb: it is the affinity of an antagonist, worked out from how it opposes an agonist. Usually EC50 stands for the midpoint of the concentration-response curve.

Data set [1] has as its system T-type calcium channels (T-channels). The conditions noted are these: native T-currents; cited from earlier work.
Data set [2] deals with tyrosinase. The conditions noted are these: read-out: IC50, reversible inhibitor of tyrosinase; cited from earlier work.
Data set [3] has as its system Spodoptera litura larvae. The note with it: cited from earlier work.
Data set [4] deals with most gram-positive and some gram-negative bacteria. The note with it: cited from earlier work.
Data set [5] relates to SAMP8 mice. The conditions noted are these: intragastric, 4-month-old SAMP8 mice, 2 months; cited from earlier work.
Data set [6] deals with CYP2B6 (Homo sapiens, UniProt P20813). The note with it: cited from earlier work.
Data set [7] addresses CYP2C8 (Homo sapiens, UniProt P10632). The note with it: cited from earlier work.
In data set [8] the target is CYP2C9 (Homo sapiens, UniProt P11712). The conditions noted are these: cited from earlier work.
For data set [9], the target named is CYP2C19 (Homo sapiens, UniProt P33261). The conditions noted are these: cited from earlier work.
In data set [10] the target is CYP3A4 (Homo sapiens, UniProt P08684). The note with it: cited from earlier work.
Data set [11] deals with human SIRT2 (Homo sapiens, UniProt Q8IXJ6). The conditions noted are these: read-out: IC50, inhibition of human SIRT2; cited from earlier work.
The target in data set [12] is human SIRT1 (Homo sapiens, UniProt Q96EB6). The conditions noted are these: read-out: IC50, inhibition of human SIRT1; cited from earlier work.
The target in data set [13] is FGFR2 (Homo sapiens, UniProt P21802). The conditions noted are these: cited from earlier work.
The target in data set [14] is fibroblast growth factor receptor 1 (FGFR1) (Homo sapiens, UniProt P11362). The conditions noted are these: cited from earlier work.
Data set [15] concerns SV-129 mice. The conditions noted are these: 450 mg/kg during a 15-minute period, after chronic simvastatin 2 mg/kg s.c. daily for 14 days; cited from earlier work.
For data set [16], the target named is N-methyl-D-aspartate receptors (NMDARs) (Homo sapiens, UniProt Q05586). The note with it: read-out: KB, competitive antagonist for the glycine-binding site of NMDARs; cited from earlier work.
The conditions of data set [17]: 510 mg/day, patients, cited from earlier work.
For data set [18], the system named is S. aureus. The note with it: cited from earlier work.
The test system of data set [19] is most molds. The conditions noted are these: for most molds; cited from earlier work.
For data set [20] the following is noted: static toxicity tests; cited from earlier work.
For data set [21], the system named is HSV-1. The conditions noted are these: cited from earlier work.
The test system of data set [22] is vesicular stomatitis virus (VSV). The note with it: cited from earlier work.
The subject of data set [23] is poliovirus. The note with it: cited from earlier work.
Data set [24] has as its target T1, Human erythrocyte GLUT1 (Homo sapiens, UniProt P11166).
T1 construct: Human erythrocyte GLUT1; from tissue; host or cells: human erythrocytes
The note with it: cited from earlier work.

The target of data set [25] is T2, Yeast-made GLUT1 (Rattus norvegicus, UniProt P11167).
T2 construct: host or cells: yeast
The conditions noted are these: cited from earlier work.

Data set [26] deals with fever induced by lipopolysaccharide (LPS). The note with it: 50 or 100 mg/kg, i.p., 0 and 2 h, rats; cited from earlier work.
The subject of data set [27] is carrageenan-induced edema and nociception. The conditions noted are these: 25, 50 or 100 mg/kg, i.p., immediately and 2 h after injection of carrageenan; cited from earlier work.
Data set [28] deals with COX-2 (Homo sapiens, UniProt P35354). The conditions noted are these: read-out: IC50, inhibition of COX-2 activity; cited from earlier work.
Data set [29] addresses TRPM8 (Homo sapiens, UniProt Q7Z2W7). The note with it: read-out: EC50, agonist of TRPM8; cited from earlier work.
For data set [30], the target named is hERG channel (Homo sapiens, UniProt Q12809). The note with it: read-out: IC50, hERG channel blocker; cited from earlier work. (Block of hERG is tested as a sign of cardiac risk.)
Data set [31] has as its system THP1 HMGB1 Lucia cells. Briefly: Pyroptosis inhibition luciferase assay (LPS + nigericin, HMGB1 luciferase reporter, QUANTI-Luc). The conditions noted are these: 1 μg/ml LPS 3 h, then 10 μM nigericin 3 h.
Data set [32] has as its system fibroblasts, peripheral blood mononuclear cells (PBMCs), myoblasts. Description: Reversal of aging (reducing predicted age) in cultured young/old cells contacted with disulfiram plus potentiating ingredients. The note with it: concentrations 0.000005 to 80 μM; potentiating ingredient up to 25 μM.
In data set [33] the test system is periodontopathic and cariogenic bacteria. The note with it: cited from earlier work.
The target of data set [34] is β-glucosidase. The note with it: cited from earlier work.

Chain of COX-2 (P35354 18-604): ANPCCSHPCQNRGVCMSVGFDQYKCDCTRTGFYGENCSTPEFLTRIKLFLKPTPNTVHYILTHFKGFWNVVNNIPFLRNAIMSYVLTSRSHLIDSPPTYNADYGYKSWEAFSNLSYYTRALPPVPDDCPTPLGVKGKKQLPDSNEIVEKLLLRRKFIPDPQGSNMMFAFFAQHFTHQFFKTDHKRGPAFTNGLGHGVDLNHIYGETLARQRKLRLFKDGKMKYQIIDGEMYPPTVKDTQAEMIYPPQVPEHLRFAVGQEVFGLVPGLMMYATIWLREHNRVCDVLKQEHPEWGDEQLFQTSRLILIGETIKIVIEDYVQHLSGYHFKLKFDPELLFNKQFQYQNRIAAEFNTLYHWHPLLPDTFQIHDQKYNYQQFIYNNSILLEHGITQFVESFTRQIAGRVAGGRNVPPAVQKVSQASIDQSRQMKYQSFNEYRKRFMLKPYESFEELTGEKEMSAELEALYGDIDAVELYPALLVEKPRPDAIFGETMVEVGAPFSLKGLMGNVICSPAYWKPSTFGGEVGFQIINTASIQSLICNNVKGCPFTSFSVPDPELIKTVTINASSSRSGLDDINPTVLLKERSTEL
Chain of CYP2B6 (P20813 whole entry): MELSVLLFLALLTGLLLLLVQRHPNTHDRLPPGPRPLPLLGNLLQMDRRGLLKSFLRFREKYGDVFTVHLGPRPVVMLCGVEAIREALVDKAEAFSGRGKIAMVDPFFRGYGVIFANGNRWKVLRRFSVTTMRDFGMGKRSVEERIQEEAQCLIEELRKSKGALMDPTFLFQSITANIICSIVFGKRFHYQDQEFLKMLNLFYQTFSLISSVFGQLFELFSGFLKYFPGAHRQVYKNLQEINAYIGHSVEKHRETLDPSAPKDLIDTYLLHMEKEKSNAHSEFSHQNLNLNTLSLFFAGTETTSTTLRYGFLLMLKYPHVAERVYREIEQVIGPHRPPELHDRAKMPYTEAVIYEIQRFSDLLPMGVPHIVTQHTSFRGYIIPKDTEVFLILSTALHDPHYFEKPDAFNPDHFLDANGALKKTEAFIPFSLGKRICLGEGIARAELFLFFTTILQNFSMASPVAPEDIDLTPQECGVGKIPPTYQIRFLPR
Chain of human SIRT1 (Q96EB6 whole entry): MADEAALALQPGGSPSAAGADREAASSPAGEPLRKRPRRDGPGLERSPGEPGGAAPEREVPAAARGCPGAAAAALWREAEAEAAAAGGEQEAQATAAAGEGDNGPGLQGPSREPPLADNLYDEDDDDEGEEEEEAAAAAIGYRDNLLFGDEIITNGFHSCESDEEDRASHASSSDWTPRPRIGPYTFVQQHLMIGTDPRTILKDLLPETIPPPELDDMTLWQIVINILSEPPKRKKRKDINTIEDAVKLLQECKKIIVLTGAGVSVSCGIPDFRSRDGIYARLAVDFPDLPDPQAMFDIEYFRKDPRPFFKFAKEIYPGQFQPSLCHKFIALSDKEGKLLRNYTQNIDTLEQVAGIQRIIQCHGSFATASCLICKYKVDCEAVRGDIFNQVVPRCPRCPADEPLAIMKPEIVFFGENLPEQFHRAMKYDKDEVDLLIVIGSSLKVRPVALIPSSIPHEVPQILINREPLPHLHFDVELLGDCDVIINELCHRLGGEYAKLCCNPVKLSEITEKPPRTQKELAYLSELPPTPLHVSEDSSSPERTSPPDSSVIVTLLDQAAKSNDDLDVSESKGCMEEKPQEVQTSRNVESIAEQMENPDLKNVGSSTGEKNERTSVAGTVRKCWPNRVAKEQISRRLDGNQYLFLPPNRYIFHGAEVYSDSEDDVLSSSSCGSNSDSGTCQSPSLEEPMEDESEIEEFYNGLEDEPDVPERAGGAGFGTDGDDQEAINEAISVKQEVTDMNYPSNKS
Chain of human SIRT2 (Q8IXJ6 whole entry): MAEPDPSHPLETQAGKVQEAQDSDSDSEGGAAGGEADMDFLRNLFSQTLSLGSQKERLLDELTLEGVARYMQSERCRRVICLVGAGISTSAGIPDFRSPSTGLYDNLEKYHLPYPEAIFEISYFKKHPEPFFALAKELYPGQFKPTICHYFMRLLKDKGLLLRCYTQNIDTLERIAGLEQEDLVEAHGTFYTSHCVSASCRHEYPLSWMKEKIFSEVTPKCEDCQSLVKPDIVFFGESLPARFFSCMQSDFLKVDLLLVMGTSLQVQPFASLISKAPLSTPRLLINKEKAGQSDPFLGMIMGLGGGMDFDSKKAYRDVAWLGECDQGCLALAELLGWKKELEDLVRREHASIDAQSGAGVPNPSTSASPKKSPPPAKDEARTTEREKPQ
Chain of CYP2C8 (P10632 whole entry): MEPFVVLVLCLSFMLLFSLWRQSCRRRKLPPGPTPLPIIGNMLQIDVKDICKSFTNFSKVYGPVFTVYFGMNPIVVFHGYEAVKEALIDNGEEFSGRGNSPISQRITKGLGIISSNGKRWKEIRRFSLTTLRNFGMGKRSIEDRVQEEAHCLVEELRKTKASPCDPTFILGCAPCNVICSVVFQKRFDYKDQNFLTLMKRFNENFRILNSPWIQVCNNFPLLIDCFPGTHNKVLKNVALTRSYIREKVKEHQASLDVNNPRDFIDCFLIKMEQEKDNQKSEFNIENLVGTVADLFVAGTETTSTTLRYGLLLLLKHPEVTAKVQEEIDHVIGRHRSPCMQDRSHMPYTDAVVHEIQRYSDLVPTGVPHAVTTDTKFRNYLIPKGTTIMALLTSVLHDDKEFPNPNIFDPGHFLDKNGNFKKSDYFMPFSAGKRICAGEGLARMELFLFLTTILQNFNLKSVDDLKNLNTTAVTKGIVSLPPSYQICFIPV
T2 sequence (P11167 whole entry): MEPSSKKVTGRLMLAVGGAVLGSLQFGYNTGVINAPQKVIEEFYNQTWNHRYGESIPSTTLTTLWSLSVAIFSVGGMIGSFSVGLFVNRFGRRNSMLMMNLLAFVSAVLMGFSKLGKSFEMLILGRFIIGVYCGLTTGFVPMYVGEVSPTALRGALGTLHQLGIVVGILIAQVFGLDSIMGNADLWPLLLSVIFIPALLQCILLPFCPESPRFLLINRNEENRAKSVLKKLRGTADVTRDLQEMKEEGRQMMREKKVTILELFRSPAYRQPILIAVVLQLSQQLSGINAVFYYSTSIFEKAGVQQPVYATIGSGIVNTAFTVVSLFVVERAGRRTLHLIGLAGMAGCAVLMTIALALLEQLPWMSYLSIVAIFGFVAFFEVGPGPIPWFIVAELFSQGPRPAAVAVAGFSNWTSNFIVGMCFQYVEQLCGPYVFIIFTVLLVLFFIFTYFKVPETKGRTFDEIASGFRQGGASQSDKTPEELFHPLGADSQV
Chain of hERG channel (Q12809 whole entry): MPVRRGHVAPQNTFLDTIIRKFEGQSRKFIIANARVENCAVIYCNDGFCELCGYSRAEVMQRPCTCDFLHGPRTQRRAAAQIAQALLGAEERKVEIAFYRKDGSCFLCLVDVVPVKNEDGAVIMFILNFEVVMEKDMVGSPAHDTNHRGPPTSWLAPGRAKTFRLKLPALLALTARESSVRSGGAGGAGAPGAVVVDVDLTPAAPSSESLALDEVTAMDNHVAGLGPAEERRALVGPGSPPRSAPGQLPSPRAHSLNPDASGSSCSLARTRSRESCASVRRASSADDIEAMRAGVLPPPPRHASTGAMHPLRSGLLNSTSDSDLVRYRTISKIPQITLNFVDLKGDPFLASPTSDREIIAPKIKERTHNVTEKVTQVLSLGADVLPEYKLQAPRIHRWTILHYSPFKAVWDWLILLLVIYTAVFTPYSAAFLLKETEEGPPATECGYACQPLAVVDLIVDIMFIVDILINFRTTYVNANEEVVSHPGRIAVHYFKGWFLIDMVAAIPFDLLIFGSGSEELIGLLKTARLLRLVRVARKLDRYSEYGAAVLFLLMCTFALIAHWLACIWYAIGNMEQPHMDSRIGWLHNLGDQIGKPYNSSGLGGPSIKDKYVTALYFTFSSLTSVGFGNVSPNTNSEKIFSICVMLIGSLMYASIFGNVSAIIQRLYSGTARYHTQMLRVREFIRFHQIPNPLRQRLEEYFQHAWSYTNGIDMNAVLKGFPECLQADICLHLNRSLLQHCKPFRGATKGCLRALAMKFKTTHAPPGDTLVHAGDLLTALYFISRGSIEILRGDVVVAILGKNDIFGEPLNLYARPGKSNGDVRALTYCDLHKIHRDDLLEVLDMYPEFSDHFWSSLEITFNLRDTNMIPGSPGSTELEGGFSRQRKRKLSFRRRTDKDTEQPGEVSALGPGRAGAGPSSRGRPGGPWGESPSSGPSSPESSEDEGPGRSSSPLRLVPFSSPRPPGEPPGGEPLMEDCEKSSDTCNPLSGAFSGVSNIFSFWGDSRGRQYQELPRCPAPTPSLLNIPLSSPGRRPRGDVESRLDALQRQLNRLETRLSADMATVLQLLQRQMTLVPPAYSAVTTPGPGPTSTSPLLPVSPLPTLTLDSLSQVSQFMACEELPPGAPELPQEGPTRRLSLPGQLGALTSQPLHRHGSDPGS
T1 sequence (P11166 whole entry): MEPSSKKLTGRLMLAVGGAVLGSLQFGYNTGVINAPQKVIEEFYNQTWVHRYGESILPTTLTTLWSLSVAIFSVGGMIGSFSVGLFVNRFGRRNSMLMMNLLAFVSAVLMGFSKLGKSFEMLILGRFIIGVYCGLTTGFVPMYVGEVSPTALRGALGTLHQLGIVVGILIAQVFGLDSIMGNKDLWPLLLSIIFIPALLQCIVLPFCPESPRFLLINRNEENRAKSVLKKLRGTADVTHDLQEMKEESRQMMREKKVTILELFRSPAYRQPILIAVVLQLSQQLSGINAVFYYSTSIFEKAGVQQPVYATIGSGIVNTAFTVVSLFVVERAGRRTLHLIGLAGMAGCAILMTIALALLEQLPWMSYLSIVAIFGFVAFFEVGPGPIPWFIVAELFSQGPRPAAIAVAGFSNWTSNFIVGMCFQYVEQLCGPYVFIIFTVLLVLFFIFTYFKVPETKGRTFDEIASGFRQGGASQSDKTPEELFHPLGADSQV

For `CCCCCCCCO` [1-Octanol], the half-inhibitory concentration (IC50) in data set [1] is 4 µM.

As to `O=C(O)CCC(=O)C(=O)O` [2-Ketoglutaric acid], the IC50 in data set [2] is 15000 µM. `CCCC=C1OC(=O)c2ccccc21` [3-Butylidenephthalide]: the LC50 larvicidal activity result in data set [3] is “activity (LC50 of 1.56 mg/g for Spodoptera”. Consider `O=C(O)c1ccc(O)cc1` [4-Hydroxybenzoic acid], for which, in data set [4], the “IC50, inhibition of most gram-positive and some gram-negative bacteria” value is on record as “of 160 μg/mL”.

With `CCCCC1OC(=O)c2ccccc21` (stereo not shown) [Butylphthalide], in [5], the “loss of choline acetyltransferase (ChAT)-positive neurons in the medial septal nucleus and vertical limb of the diagonal band” value is “diagonal band in SAMP8 mice was slowed down,”; the “spatial learning and memory ability” value is given as 2 months significantly improved spatial learning a. For the compound `C[C@@H]1CC[C@H]2C(C)(C)[C@H]3C[C@@]12CC[C@@]3(C)O` [Cedrol], the results for the inhibitory constant (Ki) in data set [6] and in [10] were 0.9 µM and 3.4 µM, respectively. The “inhibitory effect on CYP2C8” value in [7] was “has weak inhibitory effect on CYP2C8,”. Also, the “inhibitory effect on CYP2C9” value in data set [8] is on record as “has weak inhibitory effect on CYP2C8,”. Besides, the “inhibitory effect on CYP2C19” value in data set [9] is reported as “has weak inhibitory effect on CYP2C8,”.

As for `O=C1CCc2ccccc2O1` [Dihydrocoumarin], the 50% inhibitory concentration (IC50) in [11] was 295 µM; in data set [12] it was 208 µM. As to `COc1cc(/C=C/C(=O)O)ccc1O` [Ferulic acid (sodium)], the IC50 in data set [13] was 12.5 µM; in data set [14] it was 3.78 µM. Regarding `N=C(N)NCCC[C@H](N)C(=O)O` [L-Arginine], the “hyperemia amplified and sustained” value in [15] was “hyperemia (38%) and increases absolute brain”.

Regarding `N[C@@H](Cc1ccccc1)C(=O)O` [L-Phenylalanine], the Kb in data set [16] is 573 µM.

As for `C[N+](C)(C)C[C@H](O)CC(=O)[O-]` [L-carnitine], the “total time for dozing off during the daytime, calculated from the sleep logs” value in data set [17] (compared with placebo-treated periods) was “improved the total time for dozing off during the”. Moreover, in data set [17], the serum acylcarnitine levels entry was “(Levocarnitine) efficiently increased serum acyl-”; the serum triglycerides concentration result was “carnitine levels, and reduced serum triglycerides”. On to `CCCCCCCCCCCC(=O)O` [Lauric acid], for which the “EC50 for S. aureus” value in data set [18] is 6 µg/mL.

For `C[C@@H]1C/C=C/C=C/C=C/C=C/[C@H](O[C@@H]2O[C@H](C)[C@@H](O)[C@H](N)[C@@H]2O)C[C@@H]2O[C@](O)(C[C@@H](O)C[C@H]3O[C@@H]3/C=C/C(=O)O1)C[C@H](O)[C@H]2C(=O)O` [Natamycin], the “MIC (minimum inhibitory concentration)” value in data set [19] is listed as “concentration) of less than 10 ppm for most molds”. Regarding `CCCCCCCCC(=O)NCc1ccc(O)c(OC)c1` [Nonivamide], the 4d-EC50 entry in [20] is recorded as “exhibits 4d-EC50 value of 5.1 mg/L in static”. For `CCCCCCCCOC(=O)c1cc(O)c(O)c(O)c1` [Octyl gallate], in data set [21], the “antiviral effect against HSV-1” value is listed as “Octyl gallate shows a marked antiviral effect”. In [22], the “antiviral effect against vesicular stomatitis virus (VSV)” value is “Octyl gallate shows a marked antiviral effect”. Also, in data set [23], the “antiviral effect against poliovirus” value is on record as “Octyl gallate shows a marked antiviral effect”. As to `O=C(CCc1ccc(O)cc1)c1c(O)cc(O)cc1O` [Phloretin], the concentration for half-maximal inhibition (IC50) was 61 µM in [24] and 49 µM in [25]. Regarding `Cc1cc2nc3c(=O)[nH]c(=O)nc-3n(C[C@H](O)[C@H](O)[C@H](O)CO)c2cc1C` [Riboflavin], the “fever induced by lipopolysaccharide (LPS)” value in [26] is on record as 2 h) also inhibited the fever induced by lipopoly-. For the same compound, the antinociceptive effect result in data set [27] was “antinociceptive effects. The antinociceptive effect”. Consider `COc1cc(C=O)cc(OC)c1O` [Syringaldehyde], for which, in data set [28], the half-maximal inhibitory concentration (IC50) is 19.2 µM. Turning to `CCNC(=O)C1CC(C)CCC1C(C)C` (stereo not shown) [TRPM8 antagonist WS-3], the half-maximal effective concentration (EC50) in [29] was 3.7 µM.

Take `O=C(OC[C@H]1O[C@@H](OC(=O)c2cc(O)c(O)c(OC(=O)c3cc(O)c(O)c(O)c3)c2)[C@H](OC(=O)c2cc(O)c(O)c(OC(=O)c3cc(O)c(O)c(O)c3)c2)[C@@H](OC(=O)c2cc(O)c(O)c(OC(=O)c3cc(O)c(O)c(O)c3)c2)[C@@H]1OC(=O)c1cc(O)c(O)c(OC(=O)c2cc(O)c(O)c(O)c2)c1)c1cc(O)c(O)c(OC(=O)c2cc(O)c(O)c(O)c2)c1` [Tannic acid]: in [30], the IC50 is 3.4 µM.

As to `O=C/C=C/c1ccccc1` [cinnamaldehyde, (2E)-3-Phenyl-2-propenal], in [31], the “inhibition of pyroptosis (HMGB1 luciferase reporter in supernatant)” value was “no effect”. The “ability to potentiate disulfiram in reversing aging of cells” value in data set [32] is recorded as “identified as a potentiating ingredient”.

`CC1=CCC(C(C)(C)O)CC1` (stereo not drawn) [α-Terpineol]: the “antimicrobial activity against periodontopathic and cariogenic bacteria” value in data set [33] is given as “Labill, exhibits strong antimicrobial activity”.

Rebaudioside A: the “IC 50 (Target: β-glucosidase)” value in data set [34] is “IC 50: 35.01 ug/mL”.
